Reference: patent US20250049948A1, “NOVEL IONIZABLE LIPIDS AND LIPID NANOPARTICLES AND METHODS OF USING THE SAME” (Sail Biomedicines, Inc., priority 2021, published 2025)

Experiments:
[1] = test system: Balb/c mice; experiment: In-vivo bioluminescent imaging of LNP compositions (Example 6); settings: for Bioluminescence (IV) Liver / Bioluminescence (IV) Lung / Bioluminescence (IV) Spleen / Bioluminescence (IV) Whole Body: 4-6 hours post-dose; for Spleen: Liver Ratio: intravenous
[2] = test system: Balb/c mice; experiment: EPO levels in plasma, EPO MSD kit (Example 6); type: in vivo; settings: mRNA dose 5 μg FLUC + 5 μg EPO, intravenous
[3] = LNP size and polydispersity, Zetasizer Ultra; type: physicochemical
Procedure: (§1) For each LNP composition, the lipid mix and mRNA solution were mixed at a 1:3 ratio by volume, respectively, on a NanoAssemblr Ignite (Precision Nanosystems) at a total flow rate of 9 mL/min. The resulting compositions were then loaded into Slide-A-Lyzer G2 dialysis cassettes (10 k MWCO) and dialyzed in 200 times sample volume of 1×PBS for 2 hours at room temperature with gentle stirring. The PBS was refreshed, and the compositions were further dialyzed for at least 14 hours at 4° C. with gentle stirring. The dialyzed compositions were then collected and concentrated by centrifugation at 3000×g using Amicon Ultra centrifugation filters (100 k MWCO). The concentrated particles were characterized for size, polydispersity, and particle concentration using Zetasizer Ultra (Malvern Panalytical) and for mRNA encapsulation efficiency using Quant-iT RiboGreen RNA Assay Kit (ThermoFisher Scientific).

[4] = mRNA encapsulation efficiency, Quant-iT RiboGreen RNA Assay; type: physicochemical
Procedure: as §1

[5] = Apparent LNP pKa, TNS assay; type: physicochemical; settings: LNP with FLUC/EPO 1:1 mRNA
Procedure: For pKa measurement, a […] assay was conducted according to those described in Sabnis et al., Molecular Therapy, 26(6):1509-19), which is incorporated herein by reference in its entirety. Briefly, 20 buffers (10 mM sodium phosphate, 10 mM sodium borate, 10 mM sodium citrate, and 150 mM sodium chloride, in distilled Water) of unique pH values ranging from 3.0-12.0 were prepared using 1M sodium hydroxide and 1M hydrochloric acid. 3.25 μL of a LNP composition (0.04 mg/mL mRNA, in PBS) was incubated with 2 μL of TNS reagent (0.3 mM, in DMSO) and 90 μL of buffer for each pH value (described above) in a 96-well black-walled plate. Each pH condition was performed in triplicate wells. The TNS fluorescence was measured using a Biotek Cytation Plate reader at excitation/emission wavelengths of 321/445 nm. The fluorescence values were then plotted and fit using a 4-parameter sigmoid curve. From the fit, the pH value yielding the half-maximal fluorescence was calculated and reported as the apparent LNP pKa value.

[6] = mRNA dose 5 μg FLUC (CRE/FLUC 1:1 LNP)

| Structure (SMILES) | Bioluminescence (IV) Liver ([1]; mRNA dose 5 μg FLUC + 5 μg EPO) | Bioluminescence (IV) Lung ([1]; mRNA dose 5 μg FLUC + 5 μg EPO) | Bioluminescence (IV) Spleen ([1]; mRNA dose 5 μg FLUC + 5 μg EPO) | Bioluminescence (IV) Whole Body ([1]; mRNA dose 5 μg FLUC + 5 μg EPO) | Spleen: Liver Ratio ([1]; mRNA dose 5 μg FLUC + 5 μg EPO) | hEPO [2] | PDI ([3]; LNP with FLUC/EPO 1:1 mRNA) | Size (nm) ([3]; LNP with FLUC/EPO 1:1 mRNA) | % EE ([4]; LNP with FLUC/EPO 1:1 mRNA) | pKa (TNS) [5] | also measured |
| --- | --- | --- | --- | --- | --- | --- | --- | --- | --- | --- | --- |
| CCCCCCCCCCCOC(=O)CCCCCN(CCCCCCCC(=O)OC(CCCCCCCC)CCCCCCCC)C(C)CO (centres unmarked) [Compound 2249, heptadecan-9-yl 8-((1-hydroxypropan-2-yl)(6-oxo-6-(undecyloxy)hexyl)amino)octanoate] | 1.2E + 07 | 7.9E + 03 | 3.2E + 06 | 7.2E + 07 | 0.258 | 7.6E + 05 | 0.08 | 86.05 nm | 93.3% | 5.84 | – |
| CCCCCCCCCCCOC(=O)CCCCCN(CCCCCCCC(=O)OC(CCCCCCCC)CCCCCCCC)C(C)(C)CO [Compound 2250, heptadecan-9-yl 8-((1-hydroxy-2-methylpropan-2-yl)(6-oxo-6-(undecyloxy)hexyl)amino)octanoate] | 2.7E + 07 | 7.9E + 03 | 2.7E + 06 | 1.5E + 08 | 0.099 | 9.5E + 05 | 0.068 | 73.75 nm | 92.2% | 6.31 | – |
| CCCCCC(CCCCC)CCCOC(=O)CCCCCCCN(CCCCCCCC(=O)OCCCC(CCCCC)CCCCC)C(=O)CCN1CCC(O)C1 (centres unmarked) [Compound 2235, bis(4-pentylnonyl) 8,8′-((3-(3-hydroxypyrrolidin-1-yl)propanoyl)azanediyl)dioctanoate] | 2.0E + 03 | 7.6E + 03 | 2.9E + 04 | 9.8E + 03 | 14.407 | 2.2E + 02 | 0.067 | 84.84 nm | 97.5% | 7.76 | – |
| CCCCCCCCC(CCCCCC)C(=O)OCCCCCCN(CCCCCCOC(=O)C(CCCCCC)CCCCCCCC)CCC(O)CN(C)C (centres unmarked) [Compound 2225, ((4-(dimethylamino)-3-hydroxybutyl)azanediyl) bis(hexane-6,1-diyl) bis(2-hexyldecanoate)] | 1.8E + 05 | 1.0E + 04 | 2.2E + 05 | 3.5E + 05 | 1.261 | – | 0.07 | 81.88 nm | 97.9% | 7.25 | – |
| CCCCCC(CCCCC)CCCOC(=O)CCCCCCCN(CCCCCCCC(=O)OCCCC(CCCCC)CCCCC)C(=O)CN1CCCC1 [Compound 2233, bis(4-pentylnonyl) 8,8′-((2-(pyrrolidin-1-yl)acetyl)azanediyl) dioctanoate] | 6.1E + 07 | 4.1E + 04 | 4.7E + 06 | 5.4E + 08 | 0.077 | 2.8E + 06 | 0.04 | 85.5 nm | 91.2% | 6.83 | – |
| CCCCCCC(CCCCCC)CCCOC(=O)CCCCCCCN(CCCCCCCC(=O)OCCCC(CCCCCC)CCCCCC)C(=O)CCCN(C)C [Compound 2133, bis(4-hexyldecyl) 8,8′-((4-(dimethylamino)butanoyl)azanediyl) dioctanoate] | 4.4E + 04 | 5.8E + 04 | 3.9E + 04 | 3.8E + 04 | 1.574 | 2.5E + 02 | 0.08 | 87.7 nm | 98.7% | 7.96 | – |
| CCCCCC(CCCCC)CCCOC(=O)CCCCCCCN(CCCCCCCC(=O)OCCCC(CCCCC)CCCCC)C(=O)CCN1CCCC1 [Compound 2141, bis(4-pentylnonyl) 8,8′-((3-(pyrrolidin-1-yl)propanoyl)azanediyl)dioctanoate] | 3.1E + 04 | 6.8E + 04 | 1.3E + 05 | 1.9E + 05 | 6.131 | 2.1E + 03 | 0.06 | 73.83 nm | 95.9% | 7.57 | Bioluminescence (IV) Liver [1, 6]: 5.6E + 05; Bioluminescence (IV) Lung [1, 6]: 7.1E + 03; Bioluminescence (IV) Spleen [1, 6]: 2.3E + 05; Bioluminescence (IV) Whole Body [1, 6]: 5.5E + 06; Spleen: Liver Ratio [1, 6]: 0.527; PDI ([3]; LNP with CRE/FLUC 1:1 mRNA): 0.11; Size (nm) ([3]; LNP with CRE/FLUC 1:1 mRNA): 79.4 nm; PDI ([3]; LNP with EGFP mRNA): 0.21; Size (nm) ([3]; LNP with EGFP mRNA): 109.3 nm; % EE ([4]; LNP with CRE/FLUC 1:1 mRNA): 95.6%; % EE ([4]; LNP with EGFP mRNA): 95.4% |
